# Values quoted from earlier work as cited in patent US9555026B2, “Solid dispersion comprising amorphous cilostazol” (OTSUKA PHARMACEUTICAL CO., LTD., priority 2013, dated 2017).
# Settings: after meal versus fasting
smiles,measurement,value
"O=C1CCc2cc(OCCCCc3nnnn3C3CCCCC3)ccc2N1 [cilostazol, 6-[4-(1-cyclohexyl-1H-tetrazol-5-yl)butoxy]-3,4-dihydrocarbostyril]","AUC administered after meal, higher than that of fasting",1.4 times
same,"Cmax administered after meal, higher than that of fasting",2.3 times
